What was measured:
EGFR = EGFR phosphorylation by immunoblot of detergent fractions, LNCaP cells; type: cell-based, human
Procedure: Mock- or filipin (2 μg/ml)-pretreated cells were incubated in serum-free medium with or without cholesterol/cyclodextrin (Cholesterol) complexes for 1 h at 37° C. followed by EGF treatment for 20 min. […] All cells were subjected to SDEM and the I- and S-fractions analyzed by immunoblot. p-EGFR indicates EGFR phosphorylated on Y1173 detected with a phospho-specific Ab. Cell viability measured by Trypan blue exclusion 1 h after treatment of cells with filipin (FIG. 2B).
LNCaP cells were used for all experiments shown. Prior to challenge with EGF (2 or 20 ng/ml), some groups of cells were treated with filipin (2 μg/ml) (lanes 7-12) for 1 h. Other cells (lanes 4-6, 10-12) were subsequently incubated with cyclodextrin/cholesterol complexes (Cholesterol) for 1 h to replete cholesterol (FIG. 4A). In this and subsequent panels, lysates were isolated following the various treatments and processed for immunoblot analysis. p-Akt refers to a phosphorylated form of Akt1 detected with a phospho-specific Ab (Ser-473). Cells were serum-starved overnight, then pretreated with 5 mM cyclodextrin for the indicated times (lanes 1-6), or treated for 1 h with varying concentrations of cyclodextrin (lanes 7-10), then treated immediately afterward with vehicle or with 5 ng/ml EGF (FIG. 4B). […]

LNCaP cells [1] = assay: Apoptosis assays (TUNEL/flow cytometry, cell death detection ELISA, DNA ladder) in LNCaP cells; type: cell-based, human; details: serum-free, 20 μM LY294002 20 h, 2 μg/ml filipin 1 h, FIG. 3
Procedure: Apoptosis was quantified by TUNEL in combination with flow cytometry (FIG. 3A). LNCaP cells were seeded 24 h before treatments in 6-well plates at a density of 2-4×10^5/well. Conditions shown are: 20 h in serum-free medium (SFM); 20 μM LY294002 (LY); 20 μM LY294002 with 10 ng/ml EGF treatment (LY+E); 2 μg/ml filipin for 1 h (F); filipin treatment as (F) with 10 ng/ml EGF for 20 h (F+E); treatment with 2 μg/ml filipin and cyclodextrin/cholesterol complexes (C) for 1 h, followed by incubation with serum-free medium containing 20 μM LY294002 and 10 ng/ml EGF for 20 h (F+C+LY+E). Quantitative measurement of DNA fragmentation was performed with a cell death detection ELISA kit (FIG. 3B). […]
A quantitative sandwich ELISA was performed to measure mono- and oligonucleosomes in the cytoplasmic fraction of cell lysates according to the manufacturer's manual (Cell death detection ELISA) (Roche, Indianapolis, Ind.). Briefly, 1.5-2.0×10^5 cells/well were seeded in 6-well plates for 24 h, cell lysates were collected after various treatments as indicated, and the amount of histone-associated DNA fragments was quantified by spectrophotometric measurement of peroxidase activity retained in the immunocomplex (415 nm) against the substrate solution as a blank (490 nm). Apoptosis was also evaluated by the TUNEL method, using the In Situ Cell Death Detection Kit (Roche, Indianapolis, Ind.).

LNCaP cells [2] = assay: Cell viability by Trypan blue exclusion; type: cell-based, human; details: 1 h after filipin treatment, at the doses used; FIG. 2
Procedure: Mock- or filipin (2 μg/ml)-pretreated cells were incubated in serum-free medium with or without cholesterol/cyclodextrin (Cholesterol) complexes for 1 h at 37° C. followed by EGF treatment for 20 min. (FIG. 2A). All cells were subjected to SDEM and the I- and S-fractions analyzed by immunoblot. p-EGFR indicates EGFR phosphorylated on Y1173 detected with a phospho-specific Ab. Cell viability measured by Trypan blue exclusion 1 h after treatment of cells with filipin (FIG. 2B).

Akt1 = Akt1 phosphorylation (Ser-473) by immunoblot, LNCaP cells; type: cell-based, human; details: FIG. 4A
Procedure: LNCaP cells were used for all experiments shown. Prior to challenge with EGF (2 or 20 ng/ml), some groups of cells were treated with filipin (2 μg/ml) (lanes 7-12) for 1 h. Other cells (lanes 4-6, 10-12) were subsequently incubated with cyclodextrin/cholesterol complexes (Cholesterol) for 1 h to replete cholesterol (FIG. 4A). In this and subsequent panels, lysates were isolated following the various treatments and processed for immunoblot analysis. p-Akt refers to a phosphorylated form of Akt1 detected with a phospho-specific Ab ([…]). […] Cell lysates were isolated following the various treatments and processed for immunoblot analysis. p-Akt=phosphorylated form of Akt detected with a phospho-specific Ab ([…]). […] In these experiments the apoptosis of cells treated with simvastatin or mock-treated, with or without raft reconstitution, was quantified by cell death detection ELISA (Roche). Cells were either mock-treated or treated with various doses of simvastatin as indicated for 16 hours and the amount of apoptosis was quantified by ELISA and is graphically represented as absorbance at 405 nm-490 nm vs. dose of statin drug±SD from triplicate determinations (FIG. 6B). The cells were treated either in simvastatin (Sim; 10 μM) or simvastatin (Sim) and cyclodextrin/cholesterol complex (+cholesterol) for 4 hours and the amount of apoptosis was quantified by ELISA (FIG. 6C). […]

LNCaP-Cav-1 cells = assay: EGFR and Akt1 phosphorylation by immunoblot, caveolin-1 transfected LNCaP cells; type: cell-based, human; details: 2 μg/ml filipin 1 h, 5 ng/ml EGF 20 min, FIG. 4F
Procedure: LNCaP cells were used for all experiments shown. Prior to challenge with EGF (2 or 20 ng/ml), some groups of cells were treated with filipin (2 μg/ml) (lanes 7-12) for 1 h. Other cells (lanes 4-6, 10-12) were subsequently incubated with cyclodextrin/cholesterol complexes (Cholesterol) for 1 h to replete cholesterol (FIG. 4A). In this and subsequent panels, lysates were isolated following the various treatments and processed for immunoblot analysis. p-Akt refers to a phosphorylated form of Akt1 detected with a phospho-specific Ab (Ser-473). Cells were serum-starved overnight, then pretreated with 5 mM cyclodextrin for the indicated times (lanes 1-6), or treated for 1 h with varying concentrations of cyclodextrin (lanes 7-10), then treated immediately afterward with vehicle or with 5 ng/ml EGF (FIG. 4B). Cells were either mock-treated or treated with varying doses of filipin as indicated for 1 h followed by 5 ng/ml EGF treatment (FIG. 4C). Serum-containing medium was removed and cells were treated immediately with 2 μg/ml filipin alone under serum-free conditions for the times shown (FIG. 4D). No change in EGFR or Akt1 phosphorylation was observed when serum was removed and cells were not treated with filipin (not shown). […]

PC-3 cells = assay: EGFR and Akt1 phosphorylation by immunoblot, PC-3 cells; type: cell-based, human; details: 2 μg/ml filipin 1 h, 5 ng/ml EGF 20 min, FIG. 4F
Procedure: Prior to challenge with EGF (2 or 20 ng/ml), some groups of cells were treated with filipin (2 μg/ml) (lanes 7-12) for 1 h. […] In this and subsequent panels, lysates were isolated following the various treatments and processed for immunoblot analysis. p-Akt refers to a phosphorylated form of Akt1 detected with a phospho-specific Ab (Ser-473). […] LNCaP-Cav-1 cells and PC-3 cells were mock-treated or treated with 2 μg/ml filipin for 1 h at 37° C. […] Prior to the collection of cell lysates and immunoblot analysis, cells were stimulated with 5 ng/ml EGF for 20 min at 37° C.
Human PCa cell lines LNCaP and PC-3 were purchased from the American Type Culture Collection (ATCC; Rockville, Md.). Both cell lines were cultured in RPMI 1640 supplemented with 10% heat-inactivated FBS.

[3] = system: prostate glandular hyperplasia; details: dogs; published evidence (30); cited from earlier work
[4] = system: Human primary culture prostate epithelial cells; assay: Apoptosis by cell death detection ELISA in primary culture prostate epithelial cells; type: cell-based; details: various concentrations simvastatin, 16 hours; FIG. 7
Procedure: Human primary culture prostate epithelial cells were treated with various concentrations simvastatin or were mock treated as indicated at 37 °C for 16 hours. Subsequently the cells were lysed and apoptosis was quantified by cell death detection ELISA (Roche).

Compound	ligand-dependent EGFR phosphorylation in the I-fraction (EGFR; filipin pretreatment 2 μg/ml, then EGF 20 min, FIG. 2)	constitutive and EGF-induced EGFR phosphorylation (EGFR; varying filipin doses and times, FIG. 4A, C, D)	apoptosis (LNCaP cells [1])	cells that excluded Trypan blue (LNCaP cells [2]) [%]	EGF-induced Akt1 phosphorylation (Akt1; 2 μg/ml filipin 1 h, 20 ng/ml EGF)	constitutive and EGF-induced Akt1 phosphorylation (Akt1; varying filipin doses and times, C, D)	ligand-induced Akt1 phosphorylation (LNCaP-Cav-1 cells)	ligand-induced EGFR phosphorylation (LNCaP-Cav-1 cells)	ligand-induced Akt1 phosphorylation (PC-3 cells)	ligand-induced EGFR phosphorylation (PC-3 cells)	reduction of prostate glandular hyperplasia [3]	toxicity [3]	apoptosis in normal prostatic cells [4]
CCCCC[C@@H](O)[C@H]1C(=O)O[C@H](C)[C@@H](O)/C=C/C=C/C=C/C=C/C=C(\C)[C@@H](O)C[C@H](O)C[C@H](O)C[C@H](O)C[C@H](O)C[C@H](O)C[C@@H]1O [filipin, Filipin]	suppressed	decreased with filipin treatment in a dose- and time-dependent fashion	stimulated apoptosis to a similar extent as the PI3K inhibitor	100	substantially reduced	decreased with filipin treatment in a dose- and time-dependent fashion	suppressed	suppressed	suppressed	suppressed	up to 75%	no toxicity	
CCC(C)(C)C(=O)O[C@H]1C[C@@H](C)C=C2C=C[C@H](C)[C@H](CC[C@@H]3C[C@@H](O)CC(=O)O3)[C@H]21 [simvastatin]													does not cause apoptosis
